Measurements taken from ChEMBL document CHEMBL5241054, “Effective anti-aromatase therapy to battle against estrogen-mediated breast cancer: Comparative SAR/QSAR assessment on steroidal aromatase inhibitors” (Eur J Med Chem, 2020).

Biological target: T1, Aromatase (Homo sapiens, UniProt P11511)
T1 sequence (P11511 whole entry): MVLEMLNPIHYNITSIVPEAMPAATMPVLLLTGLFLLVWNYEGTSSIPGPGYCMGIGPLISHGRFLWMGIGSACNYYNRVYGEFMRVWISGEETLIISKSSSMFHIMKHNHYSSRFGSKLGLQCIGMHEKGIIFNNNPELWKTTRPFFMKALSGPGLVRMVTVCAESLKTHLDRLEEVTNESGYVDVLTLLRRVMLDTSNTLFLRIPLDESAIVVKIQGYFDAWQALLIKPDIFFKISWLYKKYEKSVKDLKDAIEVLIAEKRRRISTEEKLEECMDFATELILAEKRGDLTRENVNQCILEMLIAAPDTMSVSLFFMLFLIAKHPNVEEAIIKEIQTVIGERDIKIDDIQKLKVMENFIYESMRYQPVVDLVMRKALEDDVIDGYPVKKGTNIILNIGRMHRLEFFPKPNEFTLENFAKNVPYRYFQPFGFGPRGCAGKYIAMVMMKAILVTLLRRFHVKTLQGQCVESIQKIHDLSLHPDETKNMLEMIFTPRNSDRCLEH

SMILES	IC50
C[C@]12CC[C@@H]3c4ccc(O)cc4[C@H](c4ccccc4)C[C@H]3[C@@H]1CCC2=O	12000 nM
C[C@]12CC[C@H]3[C@@H]([C@H](Cc4ccccc4)CC4=CC(=O)CC[C@@]43C)[C@@H]1CC[C@@H]2O	39.5 nM
C[C@]12CCC(=O)C(Sc3ccccc3)=C1C=C[C@@H]1[C@@H]2CC[C@]2(C)C(=O)CC[C@@H]12	25 nM
C[C@]12CCCC=C1CC[C@@H]1[C@@H]2CC[C@]2(C)C(=O)[C@H](Br)C[C@@H]12	4100 nM
C[C@]12C=CC(=O)C=C1[C@H](CCc1ccccc1)C[C@@H]1[C@@H]2CC[C@]2(C)C(=O)CC[C@@H]12	579 nM
C[C@]12CC[C@H]3[C@@H](CC=C4CCCC[C@@]43CO)[C@@H]1CCC2O (some centres undefined)	61900 nM
C[C@]12CC[C@@H]3c4cc(Br)c(O)cc4CC[C@H]3[C@@H]1CC[C@@H]2O	89900 nM
C[C@]12C=CC(=O)C=C1[C@@H](c1ccccc1)C[C@@H]1[C@@H]2CC[C@]2(C)C(=O)CC[C@@H]12	681 nM
CCCCCCCC[C@H]1C[C@@H]2[C@H](CC[C@]3(C)C(=O)CC[C@@H]23)[C@@]2(C)CCC(=O)C=C12	5110 nM
C[C@]12CCC(=O)C=C1[C@@H](CCCCCc1ccccc1)C[C@@H]1[C@@H]2CC[C@]2(C)C(=O)CC[C@@H]12	560000 nM
C[C@]12CCC(=O)C=C1C(Cc1ccccc1)=C[C@@H]1[C@@H]2CC[C@]2(C)C(=O)CC[C@@H]12	78 nM
C[C@]12C=CC(=O)C=C1[C@@H](CCc1ccccc1)C[C@@H]1[C@@H]2CC[C@]2(C)C(=O)CC[C@@H]12	320 nM
CC(=O)O[C@H]1C[C@@H]2[C@H](CC[C@]3(C)C(=O)CC[C@@H]23)[C@@]2(C)CCCC=C12	190 nM
C[C@]12CCC(=O)C=C1[C@@H]1[C@H]([C@@H]3[C@@H]2CC[C@]2(C)C(=O)CC[C@@H]32)C1(F)F	1150 nM
C[C@]12CC[C@@H]3c4cc(C=O)c(O)cc4CC[C@H]3[C@@H]1CC[C@@H]2O	101000 nM
C[C@]12CCC(=O)C=C1[C@@H](CCCc1ccccc1)C[C@@H]1[C@@H]2CC[C@]2(C)C(=O)CC[C@@H]12	400000 nM
C[C@]12CCC(=O)C=C1[C@H](O)C(N=[N+]=[N-])[C@@H]1[C@@H]2CC[C@]2(C)C(=O)CC[C@@H]12 (some centres undefined)	3030 nM

SMILES	IC50
C[C@]12CCC(=O)C=C1C[C@@H](Cc1ccccc1)[C@@H]1[C@@H]2CC[C@]2(C)C(=O)CC[C@@H]12	328 nM
C[C@]12CC[C@@H]3c4ccc(O)cc4[C@@H](c4ccccc4)C[C@H]3[C@@H]1CC[C@@H]2O	129000 nM
CCCCS[C@@H]1CC2=CC(=O)CC[C@]2(C)[C@H]2CC[C@]3(C)C(=O)CC[C@H]3[C@H]12	57 nM
CC[C@]12C=CC(=O)C=C1CC[C@H]1[C@@H]3CCC(=O)[C@@]3(C)CC[C@@H]12	160 nM
C[C@]12CC[C@H]3[C@@H](CCC4=CC(=O)CC[C@@]43CC(F)F)[C@@H]1CCC2=O	4000 nM
CCCC[C@@H]1C[C@@]2(C)C(=CC1=O)CC[C@@H]1[C@@H]2CC[C@]2(C)C(=O)CC[C@@H]12	1930 nM
CCCC[C@H]1C[C@@H]2[C@H](CC[C@]3(C)C(=O)CC[C@@H]23)[C@@]2(C)C=CC(=O)C=C12	200 nM
C[C@]12C=CC(=O)C=C1C(CCCCc1ccccc1)=C[C@@H]1[C@@H]2CC[C@]2(C)C(=O)CC[C@@H]12	150 nM
C[C@]12CC[C@H]3[C@@H](CC(=O)C4=CCCC[C@@]43C)[C@@H]1CC[C@@H]2O	1800 nM
C[C@]12CCC(=O)C=C1[C@H](c1ccccc1)C[C@@H]1[C@@H]2CC[C@]2(C)C(=O)CC[C@@H]12	1700 nM
CC[C@]12CCC(=O)C=C1C=C[C@@H]1[C@@H]2CC[C@]2(C)C(=O)CC[C@@H]12	300 nM
CC(=O)O[C@@H]1CCC[C@@]2(CO)C1=CC[C@@H]1[C@@H]2CC[C@]2(C)C(=O)CC[C@@H]12	11000 nM
CCCCC1C[C@H]2[C@@H]3CC[C@H](O)[C@@]3(C)CC[C@@H]2[C@@]2(C)C=CC(=O)C=C12 (some centres undefined)	64 nM
C[C@]12CCC(=O)C=C1[C@H](Br)C[C@@H]1[C@@H]2CC[C@]2(C)C(=O)CC[C@@H]12	800 nM
CCCCCC[C@H]1C[C@@H]2[C@H](CC[C@]3(C)C(=O)CC[C@@H]23)[C@@]2(C)CCCC=C12	8990 nM
C[C@]12CC[C@H]3[C@@H](C=CC4=CC(=O)CC[C@@]43CBr)[C@@H]1CCC2=O	1400 nM
C[C@]12CC[C@H]3[C@@H](CCC4=CC(=O)C=C[C@@]43CI)[C@@H]1CCC2=O	5500 nM
